Test results: article PMC8689225, “Cardiac ryanodine receptor N-terminal region biosensors identify novel inhibitors via FRET-based high-throughput screening” (The Journal of Biological Chemistry, 2021)
Where two headings read alike, the source gives them in different places.

Key:
mouse RyR2 NTR = target: T1, mouse RyR2 NTR (Mus musculus, UniProt E9Q401, K30C/K441C, form not given); assay: FLT-FRET dose-response with AC-NTR biosensor; type: binding; conditions: for decrease of donor-only FLT as share of the FLT change in the donor-acceptor sample: interference control, designated interfering compounds; for ΔFLT / saturation of FRET dose-response: 0 to 100 μM; for ΔFLT: CPNQ/corbadrine decrease FLT, FA/tacrolimus increase FLT; for saturation of FRET dose-response: decreased FLT
T1 sequence (E9Q401 1-547 K30C/K441C): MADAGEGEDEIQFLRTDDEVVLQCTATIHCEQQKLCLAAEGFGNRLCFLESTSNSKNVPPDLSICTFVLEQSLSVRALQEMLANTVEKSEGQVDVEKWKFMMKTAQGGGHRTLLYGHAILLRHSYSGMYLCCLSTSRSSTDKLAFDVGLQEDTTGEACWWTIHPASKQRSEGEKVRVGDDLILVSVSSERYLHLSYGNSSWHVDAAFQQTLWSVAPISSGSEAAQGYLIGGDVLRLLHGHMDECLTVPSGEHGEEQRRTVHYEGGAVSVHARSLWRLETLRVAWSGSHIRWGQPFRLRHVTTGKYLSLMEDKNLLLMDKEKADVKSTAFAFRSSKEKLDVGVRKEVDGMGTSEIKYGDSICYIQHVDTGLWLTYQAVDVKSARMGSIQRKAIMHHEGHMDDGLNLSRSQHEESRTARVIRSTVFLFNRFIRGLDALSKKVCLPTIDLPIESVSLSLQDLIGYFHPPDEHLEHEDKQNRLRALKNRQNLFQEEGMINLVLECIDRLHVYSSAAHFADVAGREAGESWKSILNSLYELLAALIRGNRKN
Text: The NTR of mouse RyR2 (residues 1–547) was cloned and expressed as previously described ([27]). The DNA construct contains a 6×His tag, a maltose-binding protein (MBP) tag, and a tobacco etch virus (TEV) protease cleavage site. The seven native solvent-exposed cysteine residues were substituted with alanine residues, and two constructs were engineered with Cys substitutions at surface residues R383 and K441 (in the B and C domains, respectively; termed BC) and at K30 and K441 (in the A and C domains, respectively; termed AC) for labeling with spectroscopic probes such as appropriate donor–acceptor fluorophores for FRET (for the purpose of this report, these are considered the WT forms of AC and BC). A variant of the BC construct corresponding to the disease-associated mutant (R420Q) was also prepared. For this site-directed mutagenesis work, we used the QuikChange (Stratagene) and Phusion High-Fidelity PCR (Thermo Fisher Scientific) kits. The WT-NTR, R420Q-NTR, AC- and BC-NTR, AC- and BC-R420Q-NTR protein constructs were expressed in Escherichia coli Rosetta (DE3) pLacI cells at 18 °C and purified with a protocol adapted from previously published work ([26]). An amylose column was first applied after the cells were lysed by ultrasonication. The protein in the elution was then cleaved using TEV protease. The cleaved crude protein went through the second amylose column to separate from the MBP and then followed by a Superdex S-200 size exclusion column in a buffer consisting of 250 mM KCl, 10 mM HEPES, and 14 mM β-mercaptoethanol (pH 7.4). The NTR protein (3 μM) was then incubated in 10 mM HEPES, 250 mM KCl (pH 7.4, 2 h, 21 °C) with the fluorescent probes Alexa Fluor 488 maleimide (AF488, donor; 40 μM) and Alexa Fluor 568 maleimide (AF568, acceptor; 60 μM). The maleimide of the dye reacts with the thiols the Cys residues engineered into NTR, forming a covalently labeled protein. The Alexa dyes were added last to the reaction mixture, from 10 mM DMSO stock solutions. This reaction is not selective to one site (K30C or K441C), and we anticipate that there is a mixed population with K30C or K441C labeled with either AF488 (donor) or AF568 (acceptor). We focused on maximizing the fraction containing donor–acceptor pairs, thus maximizing FRET efficiency and the precision for detecting a change in structure as an indication that a compound interacts with the NTR biosensor. The labeling efficiency was determined by comparing the molar concentration of the bound dye, determined from UV-Vis absorbance, to the protein concentration, determined from gel densitometry. Essentially complete labeling was confirmed from electrospray ionization mass spectrometry. CD spectra of the WT-NTR and mutant R420Q-NTR constructs before and after labeling were recorded using a JASCO J-815 CD spectrometer (JASCO), confirming similar folding (Fig. S1).
The 1536-well assay plates were prepared as described in our previous reports ([21]). The LOPAC (Sigma-Aldrich) collection received in 96-well plates was reformatted into 384-well polypropylene intermediate plates (Greiner Bio-One) using a multichannel liquid handler, BioMek FX (Beckman Coulter), then transferred to 384-well Echo Qualified source plates (Labcyte Inc). Assay plates were prepared as previously described ([20]). On screening days, these plates were thawed out and were loaded with labeled NTR (5 μl, 20 nM final concentration) using a Multidrop Combi automated sample dispenser.
HTS measurements were conducted in a prototype top-read FLT plate reader (FLT-PR, Fluorescence Innovations, Inc), which reads each 1536-well plate in ∼3 min ([63], [64]). AF488 donor fluorescence was excited with a 473 nm microchip laser from Concepts Research Corporation, and the emission signal was split into two channels by a dichroic mirror and acquired with 517 ± 10 nm (channel 1) and 535 ± 7 nm band-pass filters (channel 2) (Semrock). […]

RyR1 = target: T2, RyR1 (Sus scrofa, UniProt P16960); assay: [3H]ryanodine binding to skeletal SR (HSR) vesicles; type: biochemical, pig; conditions: for EC50: Table S4, read-out: EC50, [3H]ryanodine binding, skeletal HSR; for maximum inhibitory effect on [3H]ryanodine binding / effect on [3H]ryanodine binding to RyR1: skeletal SR; for maximum inhibitory effect on [3H]ryanodine binding: 30 nM Ca2+; for effect on [3H]ryanodine binding to RyR1: 30 μM Ca2+
T2 construct: from tissue; host or cells: porcine longissimus dorsi muscle, heavy SR vesicles
Description: (§1) Crude sarcoplasmic reticulum membrane vesicles were isolated from porcine longissimus dorsi muscle and porcine cardiac left ventricle tissue by differential centrifugation of homogenized tissue, as established previously ([65]). Skeletal heavy SR (HSR) vesicles, which are enriched with RyR1, were isolated by fractionation of crude skeletal SR vesicles using a discontinuous sucrose gradient, in accordance with our published work ([65]). All vesicles were flash-frozen and stored at −80 °C.
(§2) In 96-well plates, skeletal SR membranes (HSR, 1 mg/ml) and cardiac SR membranes (CSR, 3 mg/ml) were preincubated with 1% DMSO or hit compound for 30 min at 22 °C in a solution containing 150 mM KCl, 5 mM GSH, 1 μg/ml Aprotinin/Leupeptin, 1 mM EGTA, and 65 μM or 1.02 mM CaCl2 (as determined by MaxChelator to yield 30 nM or 30 μM of free Ca^2+, respectively), 0.1 mg/ml of BSA, and 20 mM K-PIPES (pH 7.0). Nonspecific [^3H]ryanodine binding to SR was assessed by addition of 40 μM nonradioactively labeled ryanodine. Maximal [^3H]ryanodine binding was assessed by addition of 5 mM adenylyl-imidodiphosphate (AMP-PNP), and in the case of CSR, 20 mM caffeine was added. These control samples were each loaded over four wells per plate. Binding of [^3H]ryanodine (7.5 and 10 nM for CSR and HSR, respectively) was determined following a 3 h incubation at 37 °C and filtration through grade GF/B glass microfiber filters (Brandel Inc) using a Brandel Harvester. In 4 ml of Ecolite scintillation cocktail (MP biomedicals), [^3H]ryanodine retained on the filter was counted using a Beckman LS6000 scintillation counter.

RyR2 = target: T3, RyR2 (Sus scrofa, UniProt A0A5G2R1W3); assay: [3H]ryanodine binding to cardiac SR (CSR) vesicles; type: biochemical, pig; conditions: for EC50: Table S4, read-out: EC50, [3H]ryanodine binding, cardiac SR; for effect on [3H]ryanodine binding to RyR2: cardiac SR
T3 construct: from tissue; host or cells: porcine cardiac left ventricle, crude SR vesicles
Description: as §1, §2

RyR = test system: RyR; set-up: method as in PMID 27760856, PMID 32019969; conditions: cited from earlier work
[1] = AC-NTR biosensor, Hill fit, Table S4, read-out: EC50, FRET dose-response

T3 sequence (A0A5G2R1W3 20-4900): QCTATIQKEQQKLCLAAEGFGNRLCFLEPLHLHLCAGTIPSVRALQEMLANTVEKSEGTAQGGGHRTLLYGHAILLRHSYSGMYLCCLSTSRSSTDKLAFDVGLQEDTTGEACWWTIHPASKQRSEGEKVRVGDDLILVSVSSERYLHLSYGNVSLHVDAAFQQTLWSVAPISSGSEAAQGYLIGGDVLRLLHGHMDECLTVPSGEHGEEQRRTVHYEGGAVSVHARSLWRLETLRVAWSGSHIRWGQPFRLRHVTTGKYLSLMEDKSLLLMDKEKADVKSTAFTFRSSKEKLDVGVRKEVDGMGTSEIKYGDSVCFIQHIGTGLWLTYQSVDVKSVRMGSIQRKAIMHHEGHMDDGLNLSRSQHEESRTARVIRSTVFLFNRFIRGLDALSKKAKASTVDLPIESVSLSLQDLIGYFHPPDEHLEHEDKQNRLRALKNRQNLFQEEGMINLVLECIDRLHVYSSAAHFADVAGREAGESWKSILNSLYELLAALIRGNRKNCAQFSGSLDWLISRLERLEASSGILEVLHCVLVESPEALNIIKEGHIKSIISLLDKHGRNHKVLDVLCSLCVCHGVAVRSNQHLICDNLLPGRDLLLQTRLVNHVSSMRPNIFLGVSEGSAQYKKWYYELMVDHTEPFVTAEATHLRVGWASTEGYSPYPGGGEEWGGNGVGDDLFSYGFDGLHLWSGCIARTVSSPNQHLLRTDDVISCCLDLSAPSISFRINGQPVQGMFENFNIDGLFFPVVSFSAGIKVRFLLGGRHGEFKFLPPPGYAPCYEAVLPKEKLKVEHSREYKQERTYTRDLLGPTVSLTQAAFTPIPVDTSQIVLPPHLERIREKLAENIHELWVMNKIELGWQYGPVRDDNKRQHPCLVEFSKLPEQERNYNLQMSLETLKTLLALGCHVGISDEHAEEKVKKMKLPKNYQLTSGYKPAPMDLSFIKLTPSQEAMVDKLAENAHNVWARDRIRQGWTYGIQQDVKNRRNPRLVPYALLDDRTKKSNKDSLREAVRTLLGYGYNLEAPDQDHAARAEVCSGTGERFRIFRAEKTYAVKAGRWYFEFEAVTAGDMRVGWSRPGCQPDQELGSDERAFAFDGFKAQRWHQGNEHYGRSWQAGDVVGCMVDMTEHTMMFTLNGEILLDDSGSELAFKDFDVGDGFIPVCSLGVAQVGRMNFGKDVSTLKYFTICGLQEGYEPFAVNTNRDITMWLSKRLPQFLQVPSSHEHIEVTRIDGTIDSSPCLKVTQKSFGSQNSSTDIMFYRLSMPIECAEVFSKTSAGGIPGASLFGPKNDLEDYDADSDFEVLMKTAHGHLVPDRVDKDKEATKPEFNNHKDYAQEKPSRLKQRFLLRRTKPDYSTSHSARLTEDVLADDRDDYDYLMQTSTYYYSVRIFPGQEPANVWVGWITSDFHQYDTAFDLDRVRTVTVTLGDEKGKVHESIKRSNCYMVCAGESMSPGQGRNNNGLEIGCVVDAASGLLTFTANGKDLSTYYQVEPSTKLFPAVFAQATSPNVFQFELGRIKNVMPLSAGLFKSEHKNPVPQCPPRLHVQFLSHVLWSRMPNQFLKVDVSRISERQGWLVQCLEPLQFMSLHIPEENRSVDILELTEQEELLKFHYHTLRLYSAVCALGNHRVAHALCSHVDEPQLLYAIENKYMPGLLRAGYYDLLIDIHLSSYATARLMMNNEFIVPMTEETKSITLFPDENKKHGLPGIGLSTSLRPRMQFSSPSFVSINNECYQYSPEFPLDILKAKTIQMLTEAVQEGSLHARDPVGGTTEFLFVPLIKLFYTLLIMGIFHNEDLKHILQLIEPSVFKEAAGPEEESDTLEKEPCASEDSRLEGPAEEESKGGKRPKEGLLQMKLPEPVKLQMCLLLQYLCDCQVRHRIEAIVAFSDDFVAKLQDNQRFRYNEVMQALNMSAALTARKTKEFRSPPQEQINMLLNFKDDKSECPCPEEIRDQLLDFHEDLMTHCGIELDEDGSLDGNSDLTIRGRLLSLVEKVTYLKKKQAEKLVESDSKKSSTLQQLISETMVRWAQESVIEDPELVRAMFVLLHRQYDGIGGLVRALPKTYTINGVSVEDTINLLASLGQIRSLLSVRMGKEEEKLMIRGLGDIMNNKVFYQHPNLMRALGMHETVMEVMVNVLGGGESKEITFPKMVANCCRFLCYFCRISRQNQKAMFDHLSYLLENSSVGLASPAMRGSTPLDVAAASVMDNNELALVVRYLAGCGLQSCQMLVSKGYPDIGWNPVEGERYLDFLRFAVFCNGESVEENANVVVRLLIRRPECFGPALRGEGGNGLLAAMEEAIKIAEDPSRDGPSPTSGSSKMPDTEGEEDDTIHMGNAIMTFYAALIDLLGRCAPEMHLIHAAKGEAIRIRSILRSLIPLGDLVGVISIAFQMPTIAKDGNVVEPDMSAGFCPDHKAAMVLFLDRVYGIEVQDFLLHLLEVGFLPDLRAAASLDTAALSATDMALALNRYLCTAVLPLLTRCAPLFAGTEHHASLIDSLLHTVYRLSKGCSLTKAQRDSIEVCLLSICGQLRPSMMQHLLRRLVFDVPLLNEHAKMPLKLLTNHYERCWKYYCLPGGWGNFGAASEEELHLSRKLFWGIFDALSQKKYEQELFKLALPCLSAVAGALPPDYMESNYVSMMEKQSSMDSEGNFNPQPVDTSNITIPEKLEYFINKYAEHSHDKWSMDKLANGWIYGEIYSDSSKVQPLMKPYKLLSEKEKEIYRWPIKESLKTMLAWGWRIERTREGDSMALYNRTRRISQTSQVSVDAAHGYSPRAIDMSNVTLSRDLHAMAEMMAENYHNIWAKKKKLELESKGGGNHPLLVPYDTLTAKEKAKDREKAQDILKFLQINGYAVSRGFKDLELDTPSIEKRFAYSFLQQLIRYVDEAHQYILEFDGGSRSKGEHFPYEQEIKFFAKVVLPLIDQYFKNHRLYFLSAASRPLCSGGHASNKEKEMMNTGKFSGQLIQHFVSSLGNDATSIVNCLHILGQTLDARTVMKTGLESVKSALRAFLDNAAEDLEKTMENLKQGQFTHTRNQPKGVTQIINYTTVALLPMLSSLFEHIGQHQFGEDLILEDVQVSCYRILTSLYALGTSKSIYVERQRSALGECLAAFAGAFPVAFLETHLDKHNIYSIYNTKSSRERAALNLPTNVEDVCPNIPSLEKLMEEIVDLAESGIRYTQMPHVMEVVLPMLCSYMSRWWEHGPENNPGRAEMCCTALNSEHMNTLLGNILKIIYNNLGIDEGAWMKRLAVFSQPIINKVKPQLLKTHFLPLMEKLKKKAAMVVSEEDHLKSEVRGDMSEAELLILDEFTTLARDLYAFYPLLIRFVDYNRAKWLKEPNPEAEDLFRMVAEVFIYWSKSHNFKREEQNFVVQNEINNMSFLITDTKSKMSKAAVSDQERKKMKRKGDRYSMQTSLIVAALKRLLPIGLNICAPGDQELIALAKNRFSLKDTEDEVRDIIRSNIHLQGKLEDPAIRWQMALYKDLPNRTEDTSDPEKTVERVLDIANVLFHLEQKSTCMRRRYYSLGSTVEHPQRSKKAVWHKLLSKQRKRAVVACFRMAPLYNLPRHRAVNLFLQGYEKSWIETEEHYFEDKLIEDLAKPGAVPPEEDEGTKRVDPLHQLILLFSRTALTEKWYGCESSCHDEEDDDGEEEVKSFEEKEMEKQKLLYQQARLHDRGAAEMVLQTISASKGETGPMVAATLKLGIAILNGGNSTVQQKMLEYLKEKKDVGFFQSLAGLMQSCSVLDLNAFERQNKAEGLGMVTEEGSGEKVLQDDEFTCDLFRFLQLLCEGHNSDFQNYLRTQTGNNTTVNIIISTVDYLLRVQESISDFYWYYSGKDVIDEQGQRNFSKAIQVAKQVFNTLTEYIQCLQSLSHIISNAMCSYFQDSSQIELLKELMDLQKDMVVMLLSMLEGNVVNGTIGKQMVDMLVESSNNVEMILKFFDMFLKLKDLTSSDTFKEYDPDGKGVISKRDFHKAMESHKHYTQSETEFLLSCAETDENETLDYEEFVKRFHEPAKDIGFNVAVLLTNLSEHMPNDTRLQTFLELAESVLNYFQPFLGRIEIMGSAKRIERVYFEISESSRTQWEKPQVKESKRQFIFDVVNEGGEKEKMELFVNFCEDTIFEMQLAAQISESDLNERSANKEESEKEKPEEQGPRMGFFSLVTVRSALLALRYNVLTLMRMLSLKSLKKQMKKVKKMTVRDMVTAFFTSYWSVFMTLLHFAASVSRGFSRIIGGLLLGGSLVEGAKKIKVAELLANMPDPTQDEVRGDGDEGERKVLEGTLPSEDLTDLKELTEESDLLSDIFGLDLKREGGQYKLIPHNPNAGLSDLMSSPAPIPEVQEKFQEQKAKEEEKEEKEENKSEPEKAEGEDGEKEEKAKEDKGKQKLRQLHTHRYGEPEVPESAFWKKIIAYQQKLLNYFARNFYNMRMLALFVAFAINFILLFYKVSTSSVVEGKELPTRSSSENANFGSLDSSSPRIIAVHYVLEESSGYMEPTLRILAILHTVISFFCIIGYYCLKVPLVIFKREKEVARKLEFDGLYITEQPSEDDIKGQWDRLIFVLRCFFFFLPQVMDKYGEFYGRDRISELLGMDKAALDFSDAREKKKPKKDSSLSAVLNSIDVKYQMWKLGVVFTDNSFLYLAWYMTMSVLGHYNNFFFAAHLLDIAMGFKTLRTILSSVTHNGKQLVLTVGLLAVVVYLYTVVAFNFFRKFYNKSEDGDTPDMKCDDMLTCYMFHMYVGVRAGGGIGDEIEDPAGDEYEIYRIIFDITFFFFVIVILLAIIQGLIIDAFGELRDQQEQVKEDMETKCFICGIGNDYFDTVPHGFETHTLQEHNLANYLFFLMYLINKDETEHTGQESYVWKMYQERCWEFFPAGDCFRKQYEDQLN

## CO[C@H]1C[C@@H]2CC[C@@H](C)[C@@](O)(O2)C(=O)C(=O)N2CCCC[C@H]2C(=O)O[C@H]([C@H](C)C[C@@H]2CC[C@@H](OC(=O)C(C)(CO)CO)[C@H](OC)C2)CC(=O)[C@H](C)/C=C(\C)[C@@H](O)[C@@H](OC)C(=O)[C@H](C)C[C@H](C)/C=C/C=C/C=C/1C [temsirolimus, (1R,2R,4S)-4-{(2R)-2-[(3S,6R,7E,9R,10R,12R,14S,15E,17E,19E,21S,23S,26R,27R,34aS)-9,27-dihydroxy-10,21-dimethoxy-6,8,12,14,20,26-hexamethyl-1,5,11,28,29-pentaoxo-1,4,5,6,9,10,11,12,13,14,21,22,23,24,25,26,27,28,29,31,32,33,34,34a-tetracosahydro-3H-23,27-epoxypyrido[2,1-c][1,4]oxazacyclohentriacontin-3-yl]propyl}-2-methoxycyclohexyl 3-hydroxy-2-(hydroxymethyl)-2-methylpropanoate]
Mouse RyR2 NTR; read-out: EC50 (FRET dose-response), hits that increased FLT
  EC50: < 1 µM

## CC/C(=C(\c1ccccc1)c1ccc(OCCN(C)C)cc1)c1ccccc1 [tamoxifen]
Mouse RyR2 NTR
  decrease of donor-only FLT as share of the FLT change in the donor-acceptor sample: > 50%

## O=C(c1ccc(Cl)cc1)N1CCN(c2ccc([N+](=O)[O-])c3ncccc23)CC1 [CPNQ, 5-[4-(4-Chlorobenzoyl)-1-piperazinyl]-8-nitroquinoline]
Mouse RyR2 NTR; AC-NTR biosensor
  ΔFLT: ≈ 0.35 ns
Mouse RyR2 NTR; [1]
  EC50: 1.3 µM
RyR1; [Ca2+] 30 nM
  EC50: 20 nM
RyR1
  maximum inhibitory effect on [3H]ryanodine binding: approximately 30%
  effect on [3H]ryanodine binding to RyR1: only slightly affected
RyR2; [Ca2+] 30 nM
  EC50: 20 nM
RyR2; 30 nM Ca2+
  effect on [3H]ryanodine binding to RyR2: inhibitory trend
RyR2; 30 μM Ca2+
  effect on [3H]ryanodine binding to RyR2: did not significantly alter

## CSc1c(C)c(SC)n2ccncc12 [oltipraz M2, 7-Methyl-6,8-bis(methylthio)-pyrrolo[1,2-a]pyrazine]
Mouse RyR2 NTR; [1]
  EC50: 21.7 µM
Mouse RyR2 NTR
  saturation of FRET dose-response: did not reach saturation within the tested concentration range
RyR1; [Ca2+] 30 nM
  EC50: 5 nM
RyR1
  maximum inhibitory effect on [3H]ryanodine binding: ~50%
  effect on [3H]ryanodine binding to RyR1: only slightly affected
RyR2; 30 nM Ca2+
  effect on [3H]ryanodine binding to RyR2: almost no effect
RyR2; 30 μM Ca2+
  effect on [3H]ryanodine binding to RyR2: did not significantly alter

## CN(C)c1ccccc1CN1CCCN(Cc2ccccc2N(C)C)C1c1ccncc1 [GANT61, 2-[[3-[[2-(dimethylamino)phenyl]methyl]-2-pyridin-4-yl-1,3-diazinan-1-yl]methyl]-N,N-dimethylaniline]
Mouse RyR2 NTR; [1]
  EC50: 15.8 µM
Mouse RyR2 NTR
  saturation of FRET dose-response: did not reach saturation within the tested concentration range
RyR1; [Ca2+] 30 nM
  EC50: 4 nM
RyR1; [Ca2+], 30 µM
  EC50: 9400 nM
RyR1
  maximum inhibitory effect on [3H]ryanodine binding: ~50%
  effect on [3H]ryanodine binding to RyR1: gradual inhibition at concentrations >1 μM
RyR2; [Ca2+] 30 nM
  EC50: 4 nM
RyR2; [Ca2+], 30 µM
  EC50: 17300 nM
RyR2; 30 μM Ca2+
  effect on [3H]ryanodine binding to RyR2: inhibitor at concentration >1 μM

## Nc1ccc(-c2nc3ccc(-c4nc5ccc(N)cc5[nH]4)cc3[nH]2)cc1 [Ro 90-7501, 2'-(4-Aminophenyl)-1H,1'H-2,5'-bibenzimidazol-5-amine]
Mouse RyR2 NTR; hits that increased FLT, read-out: EC50 (FRET dose-response)
  EC50: < 1 µM
RyR
  effect on RyR: inhibitory

## COc1ccc(/C=C/c2nc(NCCCN(C)C)c3ccccc3n2)cc1 [CP-31398]
Mouse RyR2 NTR
  decrease of donor-only FLT as share of the FLT change in the donor-acceptor sample: > 50%

## C=CC[C@@H]1/C=C(\C)C[C@H](C)C[C@H](OC)[C@H]2O[C@@](O)(C(=O)C(=O)N3CCCC[C@H]3C(=O)O[C@H](/C(C)=C/[C@@H]3CC[C@@H](O)[C@H](OC)C3)[C@H](C)[C@@H](O)CC1=O)[C@H](C)C[C@@H]2OC [tacrolimus, (3S,4R,5S,8R,9E,12S,14S,15R,16S,18R,19R,26aS)-5,19-dihydroxy-3-{(1E)-1-[(1R,3R,4R)-4-hydroxy-3-methoxycyclohexyl]prop-1-en-2-yl}-14,16-dimethoxy-4,10,12,18-tetramethyl-8-(prop-2-en-1-yl)-5,6,8,11,12,13,14,15,16,17,18,19,24,25,26,26a-hexadecahydro-3H-15,19-epoxypyrido[2,1-c][1,4]oxazacyclotricosine-1,7,20,21(4H,23H)-tetrone]
Mouse RyR2 NTR; AC-NTR biosensor
  ΔFLT: ≈ 0.1 ns
RyR
  effect on RyR: activatory
